Tests used:
[1] = system: LH-RH-I receptors expressed in rat pituitaries; conditions: cited from earlier work
[2] = molecular target: T1, LH-RH-I receptors, membranes of human UM models (Homo sapiens, UniProt P30968); experiment: Radioligand binding / ligand competition, human UM samples; conditions: increasing concentrations 10^−12–10^−6 M; data not shown
T1 sequence (P30968 1-328): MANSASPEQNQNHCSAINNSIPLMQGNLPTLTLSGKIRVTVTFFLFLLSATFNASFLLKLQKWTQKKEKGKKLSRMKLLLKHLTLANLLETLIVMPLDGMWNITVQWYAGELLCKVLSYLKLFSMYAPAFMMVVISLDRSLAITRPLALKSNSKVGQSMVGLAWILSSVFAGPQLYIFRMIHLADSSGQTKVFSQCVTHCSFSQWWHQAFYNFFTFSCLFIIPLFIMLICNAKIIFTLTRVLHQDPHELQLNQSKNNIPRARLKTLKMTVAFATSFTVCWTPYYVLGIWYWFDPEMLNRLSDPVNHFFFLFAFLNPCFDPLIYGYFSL

Substance | binding affinity to LH-RH-I receptors [1] | displacement of radiolabeled [D-Trp6]LH-RH binding [2]
[^125I][D-Trp[6]]LH-RH | high affinity binding | –
buserelin | – | completely displaced

From PMC5826244 (OncoTargets and therapy, 2018)
